Results as given in patent publication US20120010161A1, “NOVEL AZAPEPTIDE OR AZAPEPTIDOMIMETIC COMPOUNDS INHIBITING BCRP AND/OR P-GP” (CENTRE NATIONAL DE LA RECHERCHE SCIENTIFIQUE, priority 2009, published 2012).
Several values for one entry are separate records, joined by “and”; a condition that tells them apart may be missing. Equal values may be shown once.

Target: T1, BCRP/ABCG2 (Homo sapiens, UniProt Q9UNQ0)
T1 construct: expressed in transfected cells; host or cells: HEK-293 transfected with pcDNA3.1-ABCG2
T1 sequence (Q9UNQ0 1-655): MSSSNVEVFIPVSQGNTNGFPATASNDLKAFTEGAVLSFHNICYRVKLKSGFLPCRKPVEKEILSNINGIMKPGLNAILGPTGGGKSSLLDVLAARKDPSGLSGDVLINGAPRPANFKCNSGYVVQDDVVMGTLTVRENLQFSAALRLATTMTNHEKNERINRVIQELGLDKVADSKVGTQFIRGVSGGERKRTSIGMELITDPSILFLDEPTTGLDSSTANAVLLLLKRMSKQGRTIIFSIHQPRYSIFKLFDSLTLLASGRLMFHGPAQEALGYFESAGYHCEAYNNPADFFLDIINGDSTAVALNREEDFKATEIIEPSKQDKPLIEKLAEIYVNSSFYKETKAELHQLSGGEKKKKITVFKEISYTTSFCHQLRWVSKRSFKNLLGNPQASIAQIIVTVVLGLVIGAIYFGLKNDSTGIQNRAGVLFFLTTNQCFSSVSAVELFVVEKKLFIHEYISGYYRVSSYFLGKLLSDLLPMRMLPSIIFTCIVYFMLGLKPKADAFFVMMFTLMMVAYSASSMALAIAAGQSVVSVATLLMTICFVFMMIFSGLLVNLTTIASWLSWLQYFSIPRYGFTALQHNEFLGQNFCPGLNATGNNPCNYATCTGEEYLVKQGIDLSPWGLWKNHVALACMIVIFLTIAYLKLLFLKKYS
Assay: Flow cytometry: mitoxantrone efflux induced by ABCG2 in transfected HEK-293 cells
Assay type: cell-based
Conditions: for inhibition at 2 μM / inhibition at 10 μM: human, HEK-293 cells transfected with ABCG2 (vector pcDNA3.1), probe mitoxantrone (5 μM); for inhibition at 2 μM: 2 μM compound, read-out: BCRP/ABCG2 % efficacy 2 μM; for inhibition at 2 μM / inhibition at 10 μM / IC50 / BCRP/ABCG2 IC50, μM: mitoxantrone efflux, HEK-293 cells; for inhibition at 10 μM: 10 μM compound, three independent experiments, read-out: BCRP/ABCG2 % efficacy 10 μM
Description: Cell cultures. The human […] HEK-293 transfected with the vector pcDNA3.1 including or not the gene encoding ABCG2 (Robey, R. W., Honjo, Y., Morisaki, K., Nadjem, T. A., Runge, S., Risbood, M., Poruchynsky, M. S., Bates, S. E. 2003, Br. J. Cancer 89(10) 1971-1978) was used to test the efficacy of the products on ABCG2. The newborn hamster kidney cell line BHK21 either natural (negative control) or transfected with the vector pNUT-MRP/His expressing the gene encoding ABCC1 (Chang, Xiu-Bao, Hou, Yue-Xian, Riordan, John R. 1997, J. Biol. Chem. 272(49) 30962-30968) was used to test the efficacy of the products on ABCC1. The cell line NIH3T3 natural or transfected with the vector pHaMDR1/A expressing ABCB1 (Cardarelli, Carol O., Aksentijevich, Ivan, Pastan, Ira, Gottesman, Michael M. 1995 Cancer Res. 55 1086-1091) was used to test the efficacy of the compounds on ABCB1. The various cell types are cultured according to the protocols described previously (Robey, R. W., Honjo, Y., Morisaki, K., Nadjem, T. A., Runge, S., Risbood, M., Poruchynsky, M. S., Bates, S. E. 2003, Br. J. Cancer 89(10) 1971-1978 for the line HEK293, Chang, Xiu-Bao, Hou, Yue-Xian, Riordan, John R. 1997, J. Biol. Chem. 272(49) 30962-30968 for the line BHK21 and Cardarelli, Carol O., Aksentijevich, Ivan, Pastan, Ira, Gottesman, Michael M. 1995 Cancer Res. 55 1086-1091 for the line NIH3T3).
FIG. 1 schematically illustrates an efflux of substrate induced by a typical ABC transporter. The substrates S, such as mitoxantrone effluxed with ABCG2 and ABCB1 or daunorubicin effluxed with ABCC1, are accumulated in the cells and expelled by the transporter T, leading to a decrease in intracellular fluorescence. In the case of accumulation of the product, typically by inhibition of the efflux protein, the intracellular fluorescence increases.
Flow cytometry. Transfected or untransfected HEK-293 and BHK-21 cells are in a first stage placed in contact with substrate (5 μM mitoxantrone or 1 μM daunorubicin depending on the transporter). The substrate is accumulated for 30 minutes at 37° C. in the presence or absence of varied concentrations of the test molecules, at 0.5% of DMSO final. After washing with PBS, the cells are incubated in medium containing the same concentrations of test molecules as previously, for 1 hour at 37° C. The drug intracellular fluorescence is measured with a FACscan flow cytometer (Becton Dickinson, Mountain View, Calif.). The fluorescent substrates are excited at 488 nm; the fluorescence emission of mitoxantrone (MTX) is measured at 650 nm and that of daunorubicin is measured at 530 nm. The efficacy of the test molecules is estimated by means of equation 1:
% efficacy=100×(FA−FBG)/(FC−FBG),
in which: • FA corresponds to the intracellular level of substrate measured in the cells overexpressing the transporter T (corresponding to the lowest level of fluorescence in the absence of inhibitor), • FC corresponds to the fluorescence in the control cells not expressing the test transporter. This is thus the maximum accumulation of substrate in the cells), • FBG corresponds to the fluorescence measured in the absence of substrate and in the presence of inhibitor.
The compounds presented in TABLES 2 to 5 were tested by flow cytometry on mammalian cell lines selectively expressing the efflux proteins ABCG2, ABCB1 or ABCC1, as described previously.
The mitoxantrone efflux induced by ABCG2 or ABCB1 and the daunorubicin efflux induced by ABCC1 are estimated by flow cytometry, as described previously, at 10 μM of each test compound, and then at 2 μM for the compounds showing at least 80% efficacy at 10 μM. The concentration inducing 50% inhibition (IC50) was estimated for the most efficient aza derivatives. The values are obtained by three independent experiments and were adjusted using the SigmaPlot software.

Row | Compound | inhibition at 2 μM | inhibition at 10 μM | IC50 | BCRP/ABCG2 IC50, μM | selectivity toward one or other of the proteins BCRP or P-gp (BCRP versus P-gp)
1 | CC(C)(C)OC(=O)NN(C(=O)N[C@@H](CCCCNC(=O)OCc1ccccc1)C(=O)OC(C)(C)C)c1ccccc1C(=O)OCc1ccccc1 [IA.1, tert-Butyl ester of (2S)-6-(benzyloxycarbonylamino)-2-[1-(2′-(benzyloxycarbonyl)phenyl)-2-(tert-butoxycarbonyl)hydrazino-carbonylamino]hexanoic acid] | 53 ± 10% | 112 ± 6% | 2000 nM | – | –
2 | CC(C)(C)OC(=O)N[C@H](CNN(CCCCCCNC(=O)OCc1ccccc1)C(=O)OCc1ccccc1)CC(=O)OCc1ccccc1 [IB.11, Benzyl ester of (3S)-4-[2-benzyloxycarbonyl-2-(6-benzyloxycarbonylaminohexyl)hydrazino]-3-tert-butoxycarbonyl-aminobutyric acid] | 92 ± 2% | 104 ± 10% | 500 ± 50 nM | micromolar or submicromolar | –
3 | CC(C)(C)OC(=O)N[C@H](CNN(CCCCCCNC(=O)OCc1ccccc1)C(=O)OC(C)(C)C)CC(=O)OCc1ccccc1 [IB.1, Benzyl ester of (3S)-4-[2-(6-benzyloxycarbonylaminohexyl)-2-tert-butoxycarbonylhydrazino]-3-tert-butoxycarbonylaminobutyric acid] | 72 ± 1% | 87 ± 27% | 900 ± 50 nM | micromolar or submicromolar | –
4 | CC(C)(C)OC(=O)NN(C(=O)N[C@@H](CCCCNC(=O)OCc1ccccc1)C(=O)OC(C)(C)C)c1cccc(C(=O)OCc2ccccc2)c1 [IA.2, tert-Butyl ester of (2S)-6-(benzyloxycarbonylamino)-2-[1-(3′-(benzyloxycarbonyl)phenyl)-2-(tert-butoxycarbonyl)hydrazino-carbonylamino]hexanoic acid] | 86 ± 14% | 112 ± 26% | 1000 nM and 1060 nM | – | selective
